The source of these data is patent publication EP0189853A2, “1,6-Naphthyridin-2(1H)-ones having cardiotonic activity and preparation” (STERLING DRUG INC., priority 1985, dated 1986).

The structures appear in SMILES notation.

The test system of one assay is guinea pig atria. Briefly: isolated guinea pig atria and papillary muscle procedure: right atrial force. The class given is cell-based. As to conditions: Cavia porcellus, read-out: % Change from Control RAF. From the text: (§1) Detailed descriptions of these test procedures appear in U.S. Patent No. 4,072,746, issued February 7, […].
(§2) Cardiotonic activity in said isolated cat or guinea pig atria and papillary muscle procedure, is indicated by a significant increase, that is, greater than 25% (cat) or 30% (g.pig) in papillary muscle force and a significant increase, that is, greater than 25% (cat) or 30% (g.pig) in right atrial force, with a lower percentage increase (about one-half or less than the percentage increase in right atrial force or papillary muscle force) in right atrial rate. Because of the lower control active tensions of guinea pig tissues, the percent change from control values of both rate and force responses is elevated slightly, i.e., 5%. Thus, whereas cardiotonic activity is ascertained with a papillary muscle force or right atrial force increase of 26% and greater in the cat test, corresponding activity in the guinea pig test is designated with a papillary muscle force (PMr) or right atrial force (RAF) increase of 31% or greater. Representative examples of the compounds of Formulas I and II were tested by said guinea pig atria and papillary muscle procedure with the following results: […]

The subject of the next assay is papillary muscle. Briefly: isolated guinea pig atria and papillary muscle procedure: papillary muscle force. The class given is cell-based. The following applies: Cavia porcellus, papillary muscle force, read-out: % Change from Control PMF.
Description: as §1, §2

Another assay deals with anesthetized dog. Briefly: anesthetized dog procedure: cardiac contractile force. The class given is in vivo. As to conditions: administered intravenously. On the procedure: as §1
When tested by said anesthetized dog procedure, the said cardiotonically active compounds of formulas I and II at doses of from about 0.030 to 3.0 mg/kg administered intravenously are found to cause significant increases, that is, 25% or greater, in cardiac contractile force or cardiac contractility with lower changes in heart rate and blood pressure. Representative examples of the invention were tested by this procedure and found to cause increases in contractile force as follows: […]

On to `Cc1nccn1-c1nccc2[nH]c(=O)ccc12` [Example 8, 5-(2-Methyl-1H-imidazol-1-yl)-1,6-naphthyridin-2(lH)-one], for which, in the assay on guinea pig atria, the activation at 10 µg/mL is 39%, the activation at 30 µg/mL amounted to 117% and the activation at 100 µg/mL was 221%. Besides, in the assay with papillary muscle, the activation at 10 µg/mL turned out to be 34%, the activation at 30 µg/mL was found to be 69% and the activation at 100 µg/mL stood at 100%.
`Cc1ccn(-c2nccc3[nH]c(=O)ccc23)n1` [Example 40, 5-(3-Methyl-1H-pyrazol-1-yl)-1,6-naphthyridin-2(lH)-one]: in the assay on guinea pig atria, the activation at 3 µg/mL was 26%, the activation at 10 µg/mL was found to be 89% and the activation at 30 µg/mL was 84%. In the assay with papillary muscle, the activation at 3 µg/mL came out at 24%, the activation at 10 µg/mL stood at 64% and the activation at 30 µg/mL amounted to 97%.
`O=c1ccc2c(-n3cncn3)nccc2[nH]1` [Example 11, 5-(lH-1,2,4-triazol-1-yl)-1,6-naphthyridin-2(1H)-one]: in the assay with guinea pig atria, the activation at 3 µg/mL turned out to be 28%, the activation at 10 µg/mL is 31% and the activation at 30 µg/mL turned out to be 140%. In addition, in the assay on papillary muscle, the activation at 3 µg/mL was found to be 51%, the activation at 10 µg/mL came to 76% and the activation at 30 µg/mL was 108%.
For the compound `O=c1ccc2c(-n3cnc(Br)c3)nccc2[nH]1` [Example 43, 5-(4-Bromo-1H-imidazol-1-yl)-1,6-naphthyridin-2(lH)-one], in the assay with guinea pig atria, the activation at 1 µg/mL stood at 35%, the activation at 3 µg/mL amounted to 43% and the activation at 10 µg/mL is 56%. Further, in the assay with papillary muscle, the activation at 1 µg/mL is 47%, the activation at 3 µg/mL was found to be 71% and the activation at 10 µg/mL was 128%.
With `O=c1ccc2c(-n3ccnc3)nccc2[nH]1` [Example 6, 5-(lH-imidazol-1-yl)-1,6-naphthyridin-2(lH)-one], in the assay on guinea pig atria, the activation at 3 µg/mL came out at 70%, the activation at 10 µg/mL worked out at 68% and the activation at 30 µg/mL turned out to be 142%. In addition, in the assay on papillary muscle, the activation at 3 µg/mL worked out at 55%, the activation at 10 µg/mL was 90% and the activation at 30 µg/mL is 96%.
Consider `Cc1cc2[nH]c(=O)ccc2c(Br)n1` [Example 46, 5-Bromo-7-methyl-1,6-naphthyridin-2(1H)-one], for which, in the assay with guinea pig atria, the activation at 1 µg/mL came out at 41%, the activation at 3 µg/mL worked out at 92% and the activation at 10 µg/mL turned out to be 59%. Also, in the assay on papillary muscle, the activation at 1 µg/mL came out at 44%, the activation at 3 µg/mL is 67% and the activation at 10 µg/mL is 114%.
Consider `Cc1ncn(-c2nccc3[nH]c(=O)ccc23)c1C` [Example 12, 5-(4,5-dimethyl-1H-imidazol-1-yl)-1,6-naphthyridin-2(1H)-one], for which, in the assay with guinea pig atria, the activation at 3 µg/mL came out at 7%, the activation at 10 µg/mL was found to be 14% and the activation at 30 µg/mL was 50%. Moreover, in the assay on papillary muscle, the activation at 3 µg/mL was 13%, the activation at 10 µg/mL is 49% and the activation at 30 µg/mL is 92%. In the assay on anesthetized dog (dose 1.00 mg/kg), the “% Increase In Contractile Force” value came to 54%. Further, in the assay with anesthetized dog (dose 3.00 mg/kg), the “% Increase In Contractile Force” value came out at 136%.
As to `O=c1ccc2c(-n3cccn3)nccc2[nH]1` [Example 10, 5-(1H-pyrazol-1-yl)-1,6-naphthyridin-2(1H)-one], in the assay with guinea pig atria, the activation at 10 µg/mL was 38%, the activation at 30 µg/mL came out at 102% and the activation at 100 µg/mL stood at 168%. Further, in the assay with papillary muscle, the activation at 10 µg/mL turned out to be 43%, the activation at 30 µg/mL was determined as 121% and the activation at 100 µg/mL was determined as 203%.
`O=c1ccc2c(-n3cnc(CO)c3)nccc2[nH]1` [Example 42, 5-[4-(Hydroxymethyl)-1H-imidazol-1-yl]-1,6-naphthyridin-2(lH)-one]: in the assay with guinea pig atria, the activation at 1 µg/mL is -2%, the activation at 3 µg/mL was 8% and the activation at 10 µg/mL was 37%. Moreover, in the assay with papillary muscle, the activation at 1 µg/mL came out at 9%, the activation at 3 µg/mL turned out to be 48% and the activation at 10 µg/mL amounted to 112%.
In the case of `O=c1ccc2c(-n3cnc([N+](=O)[O-])c3)nccc2[nH]1` [Example 48, 5-(4-nitro-1H-imidazol-1-yl)-1,6-naphthyridin-2(1H)-one], in the assay with guinea pig atria, the activation at 10 µg/mL worked out at 18%, the activation at 30 µg/mL was 42% and the activation at 100 µg/mL worked out at 170%. In the assay with papillary muscle, the activation at 10 µg/mL came to 37%, the activation at 30 µg/mL came to 71% and the activation at 100 µg/mL was found to be 107%.
Consider `O=c1ccc2c(-n3cnc(C(F)(F)F)c3)nccc2[nH]1` [Example 44, 5-[(4-(Trifluoromethyl)-lH-imidazol-1-yl)]-1,6-naphthyridin-2(lH)-one], for which, in the assay on guinea pig atria, the activation at 10 µg/mL was found to be 35%, the activation at 30 µg/mL amounted to 36% and the activation at 100 µg/mL was determined as 101%. Moreover, in the assay with papillary muscle, the activation at 10 µg/mL is 30%, the activation at 30 µg/mL was 31% and the activation at 100 µg/mL is 69%.
Consider `Cc1ncc([N+](=O)[O-])n1-c1nccc2[nH]c(=O)ccc12` [Example 9, 5-(2-methyl-5-nitro-1H-imidazol-1-yl)-1,6-naphthyridin-2(1H)-one], for which, in the assay on guinea pig atria, the activation at 10 µg/mL was found to be 15%, the activation at 30 µg/mL stood at 16% and the activation at 100 µg/mL came out at 116%. Besides, in the assay on papillary muscle, the activation at 10 µg/mL is 24%, the activation at 30 µg/mL is 43% and the activation at 100 µg/mL stood at 103%.
`Cc1cn(-c2nccc3[nH]c(=O)ccc23)cn1` [Example 7, 5-(4-Methyl-1H-imidazol-1-yl)-1,6-naphthyridin-2(1H)-one]: the activation at 0.3 µg/mL in the assay with guinea pig atria (dose 0.3 µg/ml) was 28%; in the assay on papillary muscle (dose 0.3 µg/ml), 53%. Also, the activation at 1 µg/mL with guinea pig atria was 49%; with papillary muscle, 66%. Further, the activation at 3 µg/mL turned out to be 88% with guinea pig atria and 87% in the assay with papillary muscle. Also, the “% Increase In Contractile Force” value amounted to 34% in the assay with anesthetized dog (dose 0.030 mg/kg), 96% with anesthetized dog (dose 0.100 mg/kg) and 124% in the assay with anesthetized dog (dose 0.300 mg/kg).
As for `O=c1ccc2c(-n3cnc(-c4ccccc4)c3)nccc2[nH]1` [Example 13, 5-(4-phenyl-lH-imidazol-1-yl)-1,6-naphthyridin-2(1H)-one], the activation at 10 µg/mL with guinea pig atria is 33%; with papillary muscle, 25%. Moreover, the results for the activation at 30 µg/mL in the assay on guinea pig atria and in the assay on papillary muscle were 24% and 34%, respectively. The activation at 100 µg/mL in the assay with guinea pig atria is 1%; with papillary muscle, 36%. The “% Increase In Contractile Force” value in the assay on anesthetized dog (dose 1.00 mg/kg) stood at 40%; with anesthetized dog (dose 3.00 mg/kg), 87%.
Take `Cc1cn(-c2nc(C)cc3[nH]c(=O)ccc23)cn1` [Example 47, 7-Methyl-5-(4-methyl-1H-imidazol-1-yl)-1,6-naphthyridin-2(lH)-one]: the activation at 1 µg/mL in the assay on guinea pig atria came to 37%; in the assay on papillary muscle it was 46%. Moreover, the activation at 3 µg/mL in the assay on guinea pig atria is 46%; with papillary muscle it was 48%. Moreover, the activation at 10 µg/mL was determined as 158% in the assay on guinea pig atria and 164% in the assay with papillary muscle. In addition, the figures for the “% Increase In Contractile Force” value with anesthetized dog (dose 0.100 mg/kg), in the assay on anesthetized dog (dose 0.300 mg/kg) and with anesthetized dog (dose 1.00 mg/kg) were 71%, 125% and 183%, respectively.
Regarding `Cc1ncn(-c2nccc3[nH]c(=O)ccc23)n1` [Example 41, 5-(3-methyl-lH-1,2,4-triazole-1-yl)-1,6-naphthyridin-2(1H)-one], in the assay with guinea pig atria, the activation at 1 µg/mL turned out to be 29%, the activation at 3 µg/mL came out at 37% and the activation at 10 µg/mL turned out to be 67%. In the assay on papillary muscle, the activation at 1 µg/mL was found to be 36%, the activation at 3 µg/mL turned out to be 56% and the activation at 10 µg/mL was 124%.
Regarding `O=c1ccc2c(Br)nccc2[nH]1` [Example 4, 5-bromo-1,6-naphthyridin-2(1H)-one], in the assay on guinea pig atria, the activation at 3 µg/mL came to 57%, the activation at 10 µg/mL was 49% and the activation at 30 µg/mL came out at 134%. In the assay on papillary muscle, the activation at 3 µg/mL was found to be 73%, the activation at 10 µg/mL worked out at 85% and the activation at 30 µg/mL is 110%. Also, the “% Increase In Contractile Force” value with anesthetized dog (dose 0.100 mg/kg) came out at 135%.
